{
  "source": "a melting point compilation (Tetko et al.; mined from patent text by program, amines drawn as free bases though some values may be those of a salt)",
  "data": [
    {"units": {"melting point": "°C"}, "values": [
      {"compound": "Cc1ccc(-c2ccccc2C(=O)Nc2ccc(C(=O)N3CCc4sc(NC(=N)N)nc4-c4ccccc43)cc2)cc1", "melting point": "> 230"},
      {"compound": "CNc1nc2c(s1)C(=O)CC(C)(C)C2", "melting point": "217 to 218"},
      {"compound": "CCOC(=O)c1c(CS(=O)c2nccn2C)nc2cc(OC)c(OC)cc2c1-c1ccc(OC)c(OC)c1", "note": "(stereo not given)", "melting point": "193 to 194"},
      {"compound": "COc1c(N)cccc1NC(=O)c1ccc(Br)cc1", "melting point": "111 to 112"},
      {"compound": "C(=Cc1ccc(C=Cc2ccccc2)c2ccccc12)c1ccccc1", "melting point": 189},
      {"compound": "O=C(O)CCCN1CCN(Cc2ccc3c(c2)-c2[nH]nc(-c4ccsc4)c2C3)CC1", "melting point": "195 to 198"},
      {"compound": "Cc1cc(-c2ccnc(C#N)c2)n(-c2ccc(F)cc2)n1", "melting point": "94 to 95"},
      {"compound": "CC(O)c1cc2ccccc2cn1", "note": "(stereo not given)", "melting point": "104 to 106"},
      {"compound": "N[C@H]1CCCC[C@@H]1Nc1ccnc2cc(Cl)ccc12", "melting point": 160},
      {"compound": "CC(=O)N(C)c1c(C(=O)c2cccc(Cl)c2)[nH]c2cc(Cl)ccc12", "melting point": "202 to 203"},
      {"compound": "COc1nc(OC)c(C(C)C)c(C(=O)c2cc(C)cc(Cl)c2)n1", "melting point": "119 to 120"},
      {"compound": "CC(C)c1ncc(O)cn1", "melting point": 184},
      {"compound": "Oc1ccc2c(c1)C[C@@H](NC[C@H](O)c1ccc(OCc3ccccc3)cc1)CC2", "melting point": "132 to 134"},
      {"compound": "Cc1ccc2c(O)c(-c3cccc(Oc4ccccc4)c3)c(=O)[nH]c2c1", "melting point": "299 to 300"},
      {"compound": "O=C(/C=C/c1ccccc1)Nc1ccccc1C(=O)O", "melting point": "188 to 189"},
      {"compound": "Nc1cccc2cncc(Br)c12", "melting point": 155},
      {"compound": "Cc1ccc2sc(S(N)(=O)=O)cc2c1", "melting point": "212 to 213"},
      {"compound": "CCCNC(=O)c1nc(-c2ccccc2)c(-c2ccc(=O)n(Cc3ccccc3)n2)s1", "melting point": "120 to 121"},
      {"compound": "c1ccc(COCCNc2ccc(Nc3ncnc4cc(-c5ccccc5)sc34)cc2)cc1", "melting point": "201 to 203"},
      {"compound": "CCCC(C(=O)OCC)n1cnc(C(N)=O)c1", "note": "(stereo not given)", "melting point": 95},
      {"compound": "N#Cc1ccc(N(Cc2ccc(OCc3ccccc3)cc2)n2cnnc2)cc1-c1ccco1", "melting point": "181 to 182"},
      {"compound": "CCc1c(C)cccc1C(=O)NC1CN2CCC1CC2", "note": "(racemic)", "melting point": 125},
      {"compound": "COc1c(C)cc(N2CCN(c3ccc([N+](=O)[O-])cc3)CC2)cc1C", "melting point": 135},
      {"compound": "COC(=O)COc1ccc(C(=O)CCN2CCN(c3ccncc3)CC2)cc1", "melting point": "93 to 95"},
      {"compound": "O=NCNC1=Nc2ccsc2C(c2ccccc2)=NC1", "melting point": "156 to 159"},
      {"compound": "CCCc1nc2cccc(C(=O)O)c2n1Cc1ccc(-c2ccccc2-c2nc(=O)o[nH]2)cc1", "melting point": "169 to 171"},
      {"compound": "Cc1cc(NC(=O)C2=C(O)c3ccccc3S(=O)(=O)CC2)no1", "melting point": "226 to 228"},
      {"compound": "CC(C)c1nn(-c2ccc(C(F)(F)F)cn2)cc1CCCCO", "melting point": "67 to 68"},
      {"compound": "Cn1nc(-c2ccccc2)c(N)c1-c1ccccc1", "melting point": "80 to 81"},
      {"compound": "CCOc1cc(N)c(Cl)cc1C(=O)NCC1CN(CC2CCN(C(N)=O)CC2)CCO1", "note": "(stereo not given)", "melting point": "201 to 207"},
      {"compound": "CC(CO)c1ccc2nc(-c3ccccc3)oc2c1", "note": "(stereo not given)", "melting point": 98},
      {"compound": "Cc1cc(O)n(C2CCCCC2)n1", "melting point": 153},
      {"compound": "C=CC(CC(O)C(CC1CCCCC1)NC(=O)C(Cc1c[nH]cn1)NC(=O)C(CN)(Cc1ccccc1)Cc1ccccc1)C(C)C", "note": "(stereo not given)", "melting point": 89},
      {"compound": "O=c1[nH]c2ccc(C3CCC(NCCS(=O)c4ccccc4)CC3)cc2o1", "note": "(stereo not given)", "melting point": "107 to 110"},
      {"compound": "CC12CCC3c4ccc(OCc5ccccc5)c(N)c4CCC3C1CCC2=O", "note": "(stereo not given)", "melting point": "219 to 221"},
      {"compound": "Cc1c(C)c2c(c(C)c1N)CC(C)(CN1CCC(c3ccncc3)CC1)O2", "note": "(stereo not given)", "melting point": "126 to 128"},
      {"compound": "COc1ccc(N2Cc3cnc(Nc4ccccc4)nc3N([C@@H](C)CO)C2=O)c(F)c1", "melting point": "188 to 198"},
      {"compound": "NC(Cc1cccc(C(F)(F)F)c1)=NO", "melting point": "91 to 92"},
      {"compound": "Cc1ccc(-c2ccc3c(c2)C=C(C(=O)O)C(C)O3)cc1", "note": "(stereo not given)", "melting point": "190 to 192"},
      {"compound": "CC(C)(C)NC(=O)c1nn(-c2ccc(Br)cc2)c2c1[C@@H]1CC[C@H]2C1", "melting point": "148 to 149"},
      {"compound": "CC(=O)Nc1ccc(OCCCCl)cc1", "melting point": "125 to 127"},
      {"compound": "O[C@H]1CC[C@@H](Nc2ncc3ncnc(Nc4ccc(F)c(Cl)c4)c3n2)CC1", "melting point": "270 to 275"},
      {"compound": "COC(C(=O)O)c1nn(-c2ccc(Br)cc2)c2c1CCCC2", "note": "(stereo not given)", "melting point": 123},
      {"compound": "Cc1noc2cc(F)c(-n3c(=O)cc(C(F)(F)F)n(C)c3=O)cc12", "melting point": "158 to 159"},
      {"compound": "COc1cc(C(=O)N2CCC(CCN3CCC(C(=O)c4nc5ccccc5n4Cc4ccc(F)cc4)CC3)(c3ccc4c(c3)OCO4)C2)cc(OC)c1OC", "note": "(stereo not given)", "melting point": "112 to 114"},
      {"compound": "CNc1ncnc2ccc(I)cc12", "melting point": 245},
      {"compound": "COc1cc2nc(N3CCN(c4nc5cccccc-5n4)CC3)nc(N)c2cc1OC", "melting point": "189 to 193"},
      {"compound": "CC(C)(c1ccc(N)c([N+](=O)[O-])c1)c1ccc(N)c([N+](=O)[O-])c1", "melting point": "207 to 210"},
      {"compound": "CC(=O)Oc1ccc(C(=O)c2cccc(OC(C)=O)c2)cc1", "melting point": "81 to 83"},
      {"compound": "COc1ccc(C(C#Cc2ccccc2)Cc2ncc(C)o2)cc1OC1CCCC1", "note": "(racemic)", "melting point": "103 to 104"}
    ]}
  ]
}
